SMILES | melting point [°C]
O=C(O)CCON=c1c2nccc3cccc(c32)n2cccc12 | 250
O=C(O)CCCSc1cccc(Br)n1 | 72 to 74
COC1(c2ccccc2)CCc2c(C)c(O)c(C)c(C)c2O1 (stereo unspecified) | 190 to 192
CCOC(=O)C(=NO)C(=O)Nc1ccc(Cl)cc1C(=O)c1ccccc1 | 98 to 105
N#Cc1c[nH]c(-c2ccccc2)c1C#N | 197 to 200
Cc1cc(NC(=O)c2cn(-c3ccccc3)c3ccccc3c2=O)no1 | 163 to 164
COC(=O)CCCc1cc2nc(Cl)ccc2n1S(=O)(=O)c1ccc(C)c2ccccc12 | 118 to 120
CCOC(=O)N1CCC(NC(=O)c2ccc(Cl)cc2Cl)C12CCCCC2 (stereo unspecified) | 143 to 144
Cc1cc(S(=O)(=O)c2ccc([N+](=O)[O-])cc2)cc(Br)n1 | 154 to 156
O=Cc1ccc(OCc2ccccc2)c(F)c1 | 94 to 95
Cc1ccnc(C(=O)c2[nH]c3cc(Cl)c(F)cc3c2CC(=O)O)c1 | 220
C=Cn1c2ccccc2c2cc(Br)ccc21 | 74 to 74.5
CCCCS(=O)(=O)N(C(=O)OC(C)(C)C)c1cc(OC[C@@H]2CO2)ccc1OCc1ccccc1 | 87 to 89
CC1CC(N)=NN1c1cncc(Cl)n1 (stereo unspecified) | 147 to 148
CCOC(=O)c1c2ccc(Cl)cc2c(-c2ccccc2)n1CCCC(C)=O | 94 to 95
CCOC(=O)c1cc(-c2ccc(OCc3ccccc3)cc2)n[nH]1 | 160 to 170
CS(=O)(=O)c1cccc(C(=O)O)c1O | 180
COC(=O)c1cc(C)c(-c2cccc(OCc3ccc(COC(=O)c4ccccc4)c(COC(=O)c4ccccc4)c3)c2C)c(C)c1 | 131 to 132
CCCc1c(OCCCCCC(=O)c2c(C)c(C)c(O)c(O)c2C)ccc(C(=O)O)c1O | 169 to 170
CCNC(=O)Nc1nc2cc(-c3ccc(N(C)C)nc3)ccn2n1 | 285 to 290
Cc1cc(CC2(Cc3ccnc(C)c3)c3ccccc3-c3ncccc32)ccn1 | 177 to 179
CCOC(=O)c1cnn2c1c(NC1CCCCC1)nc1ccccc12 | 132 to 135
COc1ccc(-c2cc(-c3ccccc3)c(-c3ccccc3)s2)cc1 | 124 to 126
CCOC(=O)C(C#N)=Cc1ccc([N+](=O)[O-])cc1C | 180 to 210
CC1CCCC(C)N1Cc1ccc2cc(NC(=O)c3ccc(-c4ccc(Cl)cc4)cc3)ccc2c1 (stereo unspecified) | 220 to 222
O=C(c1ccco1)c1cnn2c(-c3cccnc3)ccnc12 | 228 to 229

SMILES | melting point [°C]
CC(=O)OC1C2C=CC1C1N=NC21 (stereo unspecified) | 58
CCOC(=O)c1cccc(C=C(C(=O)O)c2ccccc2)c1 | 139 to 140
COc1c(S(=O)(=O)N2CCC[C@H]2C(=O)O)ccc(Cl)c1COc1cccc2c(C)cc(C)nc12 | 134 to 138
CON=C(C)c1cc(C[C@H](NC(=O)c2c(Cl)cccc2Cl)C(=O)O)ccc1-c1ccccc1OC | 107
CC(C#CC1CCC1)N(O)C(N)=O (stereo unspecified) | 144 to 145
COC(=O)[C@@H](Cc1c[nH]c2ccccc12)NS(=O)(=O)c1ccc(OC)cc1 | 120 to 122
Cc1nc(Cl)c2c(n1)N(C)C(=O)CO2 | 142 to 143
CCOC(=O)CN(Cc1ccccc1)C(=O)Cn1c2cccc(OCc3ccccc3)c2c2c(COC)c(C(=O)OC(C)C)ncc21 | 122
CC(C)Cc1ccc(C(C)C(=O)ON(C(N)=O)C(C)c2cc3ccccc3s2)cc1 (stereo unspecified) | 123 to 128
CC(C)C(c1cccc(NC(=O)OCc2ccccc2)c1)c1c(O)c2c(oc1=O)CCCCCC2 (stereo unspecified) | 96 to 101
Cc1nnc2n1-c1sc(CCc3ccc(O)cc3)cc1C(c1ccccc1Cl)=NC2 | 100
CC(=O)NC1=C(N)C(=O)c2ccccc2C1=O | 233 to 234
O=C(C=Cc1cc(O)c(O)c(C(F)(F)F)c1)c1ccccc1 | 196 to 201
C1=C(c2ccccc2)CCN(CC2CCC=C(c3ccccc3)C2)C1 (stereo unspecified) | 94 to 100
CN(C)C(=O)COc1ccc(I)cc1 | 63 to 65
Cc1ccc(C(=O)n2c3c(c4ccccc42)CC(C(=O)O)CC3)cc1 (stereo unspecified) | 210 to 212
COc1ccc(C(=O)c2cccnc2N2CCCC2=O)cc1 | 76 to 77
O=c1[nH]c2ccccc2cc1-c1csc(NS(=O)(=O)c2ccc(Cl)cc2)n1 | > 300
Fc1cc(F)c(-c2c(Cl)nc3nccn3c2N2CCCCCC2)c(F)c1 | 106 to 108
O=C(NCC(=O)N(O)CCCP(=O)(O)O)OCc1ccccc1 | 101 to 105
Cc1[nH]c(=O)c2ccccc2c1CC(=O)O | 280 to 295
CCOC(NC(=O)c1ccccc1)C(N)=O (stereo unspecified) | 148 to 150
CN(C(=O)OC(C)(C)C)c1ccc2onc(OCC(CO)NC(=O)OC(C)(C)C)c2c1 (stereo unspecified) | 109 to 112
CC(C)n1c(C=O)c(-c2ccc(F)cc2)c(-c2ccc(F)cc2)c1C(=O)Nc1ccc(CC(=O)N(C)C)cc1 | 226 to 227
Fc1cc(OCc2ccccc2)cnc1Cl | 48 to 52

Source: a melting point compilation (Tetko et al.; mined from patent text by program, amines drawn as free bases though some values may be those of a salt)
